Measured values as given in ChEMBL document CHEMBL1128313, “In vitro muscarinic activity of spiromuscarones and related analogs” (J Med Chem, 1995).
Active and inactive are the calls of the source. The calls are words filed in the database; no cut-off is given here.

Organism: Rattus norvegicus
Experiment: The compound was tested for maximum stimulation of PI (phosphatidyl inositol) in rat hippocampal tissue, activity is expressed as percent of carbachol response; Inactive
Format: functional
Conditions: Hippocampus

Structure (SMILES)	Max stimulation
CC1OC2(CCN(C)CC2)C2SCCSC12 (stereo unspecified)	inactive
CC1OC2(CCN(C)CC2)C2OCCOC12 (stereo unspecified)	inactive

Molecular target: Muscarinic acetylcholine receptor
Conditions: not given

Ki	Structure (SMILES)
430 µM	CC1OC2(CCN(C)CC2)CC1O.Cl (stereo unspecified)
33 µM	CC1CC(=O)C2(CCN(C)CC2)O1 (stereo unspecified)
141 µM	CC1OC2(CCN(C)CC2)CC1O (stereo unspecified)
2.68 µM	CC1OC2(CCN(C)CC2)CC1=O (stereo unspecified)
30 µM	CC1CC(O)C2(CCN(C)CC2)O1 (stereo unspecified)

Structure (SMILES)	Ki
CCC(=O)O/N=C1\COC2(CCN(C)CC2)C1.O=C(O)/C=C\C(=O)O.O=C(O)C(=O)O	38.1 µM
CC1OC2(CCN(C)CC2)C/C1=N\O (stereo unspecified)	1.63 µM
CC(=O)OC1COC2(CCN(C)CC2)C1 (stereo unspecified)	98.7 µM
CC(=O)O/N=C1\COC2(CCN(C)CC2)C1.O=C(O)/C=C\C(=O)O.O=C(O)C(=O)O	44.8 µM
